Patent US20050143346A1, “Composition for treating cancer containing n,n-dimethylphytosphingosine” (priority 2002, published 2005)

Key:
HL60 cells = test: DNA fragmentation by agarose gel electrophoresis; format: cell-based; conditions: 24 hrs, FIG. 9
Description: DNA fragmentation as a representative characteristic of apoptosis was assessed at a level of concentration including cytotoxicity. Apoptosis is a programmed cell death, characterized by complicate biological characteristics including morphological changes, chromatin condensation, a formation of apoptotic body and the like. This experiment was performed to assess DNA fragmentation among them. HL60 cells were seeded (1×10^7 cell/10 ml), and incubated in 5% CO2 incubator at 37° C. for 24 hrs. Then, N,N-dimethylphytosphingosine and control substances (at concentration indicated in FIG. 9) was added and incubated for 24 hrs. All of substances were dissolved in EtOH. Cells were recovered by centrifugation, and then cell membrane was disrupted by adding lysis buffer (5 mM Tris-HCl (PH 7.4), 20 mM EDTA, 0.5% Triton X-100). After centrifuging at 12,000 rpm for 10 min, supernatant in which DNA fragments were dissolved was recovered. To the supernatant was added equivalent amount of phenol, vortexed, centrifuged at 12,000 rpm for 10 min, and then supernatant was recovered carefully. DNA extraction with phenol:chloroform:isoamylalcohol (25:24:1) or chloroform was performed in a same manner as the method with phenol. To the supernatant which was treated by various solvents was added a solution of 0.3 M sodium acetate (pH 5.2) in EtOH, and precipitated in a freezer at −20° C. for 24 hrs. After centrifuging at 12,000 rpm for 10 min, supernatant was decanted to obtain DNA pellets. 70% EtOH was added to the remaining DNA pellets to wash them. Again, after centrifuging, supernatant was discarded, the remaining DNA fragments were dissolved in TE buffer. To remove RNA in addition-to DNA fragments, […] of 0.5 mg/ml RNAse was added, and reacted at 37° C. for 30 min. DNA fragmentation was found by 1.2% agarose gel electrophoresis. […] N-acylsphingosine was known as apoptosis inducing substance, and DNA fragmentation was one example of such effects. […] Accordingly, it is considered that N,N-dimethylphytosphingosine of the present invention has excellent apoptosis inducing effect compared to N-acylsphingosine. It was not observed that CLA ceramide belonging to sphingosineceramide induced DNA fragmentation.
The following is the meaning of the symbols used in FIG. 9. • SM: DNA size marker • EtOH: Ethanol • 1: DMPS 12.5 μM • 2: DMPS 25.0 μM • 3: DMPS 50.0 μM • 4: C2 ceramide 25.0 μM • 5: C2 ceramide 50.0 μM • 6: CLA ceramide 25.0 μM • 7: CLA ceramide 50.0 μM

[1] = test system: sphingosine kinase from mouse; test: Inhibition of sphingosine kinase activity ([32P]ATP, sphingosine-1-phosphate formation); format: biochemical; conditions: compared with dimethylsphingosine; 37° C. for 20 min; FIG. 3
Description: The same experiment was performed on dimethylsphingosine to compare with the effect of dimethylphytosphingosine of the present invention. Sphingosine kinase assay buffer was prepared as follows to determine an activity of sphingosine kinase: 20 mM Tris buffer, pH 7.2, 10 mM MgCl2, 20% glycerol, 1 mM dithiothreitol, 1 mM Na3VO4, 15 mM NaF, […] leupeptin and aprotinin, 1 mM PMSF and 0.5 mM 4-deoxypyridoxine.
The reaction was 200 μl, each 50 μM dimethylsphingosine and dimethylphytosphingosine dissolved in 0.25% Triton X-100, 10 ng of sphingosine kinase from mouse and 1 mM [32P] ATP were added, and reacted at 37° C. for 20 min. After completion of the reaction, the reaction was terminated by adding 20˜50 μl of 1N HCl. Following termination, lipid was separated and purified by adding 1 ml of chloroform, and dried under nitrogen gas. An inhibitory effect against sphingosine kinase was found by measuring isotope with scintillation counter and then determining produced sphingosine-1-phosphate. In the graph, indicated in FIG. 3, Y axis represents CPM and X axis represents concentration (μM).

HL60 cell = test: MTT assay, apoptosis inducing effect on HL60 cell; format: cell-based; conditions: 0.5 M˜[…], 24 hrs, FIG. 4
Description: An apoptosis inducing effect of N,N-dimethylphytosphingosine was assayed. Anti-cancer effect is expressed through various signal transduction pathway depending on working mechanism and chemical structure, but consequently give rise to apoptosis which allows cells to be killed.
(§1) This experiment was performed by MTT assay. MTT (3-[4,5-Dimethylthiazol-2-yl]-2,5-diphenyltetrazolium) is a staining reagent displaying yellow color when it is dissolved in medium, but it is discolored to violet formazan by active dehydrogenase in mitochondria of viable cell. […] HL60 cell lines were seeded to 96-well plate at appropriate concentration, and incubated in 5% CO2 incubator at 37° C. for 24 hrs. Thereafter, individual sample to be assessed on apoptosis effect, i.e. phytosphingosine, C2 phytoceramide, tetraacetylphytosphingosine, C6 phytoceramide, C8 phytoceramide, C3 ceramide, sphinganine, dimethylsphingosine and dimethylphytosphingosine was diluted with serum free RPMI. Cells were treated with […]˜50 µM of the dilutions, and incubated for 24 hrs. MTT (final concentration: 0.5 mg/ml) was loaded to the individual well. After incubating for another 3 hrs and dissolving the staining reagent with pipette, the absorbance was measured at 570 nm.

HaCaT cell = test: MTT assay, apoptosis inducing effect on HaCaT cell; format: cell-based; conditions: FIG. 5
Description: as §1
This Experiment was carried out in an identical manner to that described for example 3, except for using HaCaT cell to induce apoptosis.

LLC-PK1 cell = test: MTT assay, apoptosis inducing effect on LLC-PK1 cell; format: cell-based; conditions: FIG. 6
Description: as §1
This Experiment was carried out in an identical manner to that described for example 3, except for using LLC-PK1 cell to induce apoptosis.

B104 cell = test: MTT assay, apoptosis inducing effect on B104 cell; format: cell-based; conditions: FIG. 7
Description: as §1
This Experiment was carried out in a manner identical to that described for example 3, except for using B104 cell to induce apoptosis.

MDA-MB-231 cell = test: MTT assay, apoptosis inducing effect on MDA-MB-231 cell; format: cell-based; conditions: FIG. 8
Description: as §1
This Experiment was carried out in an identical manner to that described for example 3, except for using MDA-MB-231 cell to induce apoptosis.

[2] = test system: histone component presented in nucleosome of cytoplasm of cell lysates; test: Anti-histone antibody binding ELISA (mono- or oligosome detection); format: cell-based; conditions: FIG. 10
Description: This experiment was based on the theory of ELISA. Briefly, Mono- or oligosome of degraded nucleic acid in cytoplasm can be detected by means of monoclonal antibodies which are specific for histones (H2A, H2B, H3 and H4) and single-stranded or double-stranded DNA. Cells which apoptosis was induced activated Ca2+ and Mg2+-dependent endonuclease, and the enzyme degraded adjacent double stranded DNA to form mono- or oligosome. On this account, histone which had been compactly bound to the DNA in nucleus was exposed to outside.
First, anti-histone antibody was immobilized to 96 well plate. Coating solution was added, and reaction was performed at ambient temperature for 1 hr. Then, each sample was treated to obtain cell lysates, and histone component presented in nucleosome of cytoplasm of cell lysates was adhered to the 96 well plate to which anti-histone antibody was immobilized. Above procedure was performed at 15˜25° C. for 90 min. Then, anti-DNA-peroxidase (POD) was bound to DNA part of nucleosome of cytoplasm. This procedure was performed at ambient temperature for 90 min. Unbound peroxidase conjugate was washed, ABTS(2,2′-azino-di-[3-ethylbenzthiazoline sulfonate]) was added as an substrate, reacted for 10˜20 min, and then absorbance was measured at 405 nm.

protein kinase C(PKC) = test: PKC inhibition effect using epidermis cells of rat; format: cell-based; conditions: 100 μM and 400 μM; compared with other sphingolipid derivatives; FIG. 11
Description: The present inventors assessed an inhibitory effect of N,N-dimethylphytosphingosine on protein kinase C(PKC) using epidermis cells of rat. Epidermis cells were cultured to 2×10^7 cell/ml. N,N-dimethylphytosphingosine and other sphingolipid derivatives (100 μM and 400 μM respectively) were added, and reacted. The cells were washed with PBS and disrupted with homogenizer. The disruption of cells was centrifuged, and the supernatant was passed through DE52 column to obtain a portion containing protein kinase C. For activated PKC reaction, a tube containing 5 μl of PKC coactivation 5× buffer, PKC activation 5× buffer, PKC biotinylated peptide substrate, [32P]ATP mix respectively were prepared as a control. Also, other individual tubes containing 5 μl of PKC coactivation 5× buffer, control 5× buffer, PKC biotinylated peptide substrate, [32P]ATP mix were prepared further containing 5 μl of the relevant enzyme in each tube. The reaction was performed at 30° C. for 5 min. Thereafter, terminating solution (12.5 μl) was added to quench the reaction. The reaction solution (10 μl) was dropped on SAM2™ membrane, washed with 2 M NaCl (1×, 30 seconds), 2 M NaCl (3×, 2 min), 1% H3PO4 and 2M NaCl solution (4×, 2 min), and distilled water (2×, 30 seconds), dried and then measured isotope to assess the effect of PKC inhibition. The results were in FIG. 11. […]

Bacillus licheniformis = test: Antibacterial effect, colony counting; format: cell-based; conditions: B. licheniformis, FIG. 12
Description: (§2) The present inventors performed experiment using Bacillus licheniformis (Gram positive bacteria) and E. coli(Gram negative bacteria) to test an antibacterial activity of N,N-dimethylphytosphingosine. In this experiment, autoclaved LB (bactopeptone 10 g/l, yeast extracts 5 g/l, and sodium chloride 10 g/l) or TS (triptone 15 g/l, soitone 5 g/l, and sodium chloride 5 g/l) was used as culture medium, and cultured at 30° C. or 37° C. for 2-3 days. After culturing, an antibacterial capacity was measured by counting the number of cells. […] Each microbe was cultured, diluted successively with 10-fold, smeared on the medium, cultured again, and then dilution rate which formed 30-300 populations per plate medium was determined. After culturing each microbe, the culture was diluted with the determined dilution rate. At this time, 0.85% NaCl was used as a diluted solution. A sample which was prepared by above mentioned method was diluted successively with a solvent for preparing the sample. After obtaining the desired concentration, 1 ml of the diluted sample was added to 9 ml of a diluted solution of microbes, and then mixed thoroughly. After standing at 30° C. or 37° C. for 1 hr (with mixing occasionally), each 100 μl was smeared on the culture medium. After culturing under individual condition, the number of population was measured.

E. coli = test: Antibacterial effect, colony counting; format: cell-based; conditions: FIG. 12
Description: as §2

Structure (SMILES)	concentration at which DNA fragmentation was induced (HL60 cells) [µM]	inhibitory effect against sphingosine kinase (produced sphingosine-1-phosphate, CPM) [1]	cell death (MTT assay) (HL60 cell)	cell death (MTT assay) (HaCaT cell)	cell death effect compared to dimethylsphingosine (HaCaT cell)	cell death (MTT assay) (LLC-PK1 cell)	cell death effect compared to dimethylsphingosine (LLC-PK1 cell)	cell death (MTT assay) (B104 cell)	cell death effect compared to dimethylsphingosine (B104 cell)	cell death (MTT assay) (MDA-MB-231 cell)	cell death effect compared to dimethylsphingosine (MDA-MB-231 cell)	DNA fragmentation (electrophoresis), result in words (HL60 cells; DMPS 12.5-50.0 μM, C2 ceramide and CLA ceramide 25.0 and 50.0 μM)	degree of DNA fragmentation compared to C2 ceramide (HL60 cells)	absorbance (A405 nm-A490 nm), anti-histone antibody binding [2]	inhibitory effect on PKC (protein kinase C(PKC))	amount of colonies reduced to (Bacillus licheniformis; 1 μg/ml) [%]	number of colonies (Bacillus licheniformis)	amount of colonies reduced to (E. coli; 1 μg/ml) [%]	number of colonies (E. coli)
CCCCCCCCCCCCC/C=C/[C@@H](O)[C@H](CO)NC(C)=O [C2-ceramide, N-acylsphingosine, reference compound]	25.0																		
CCCCCCCCCCCCCCC(O)C(O)C(CO)N(C)C (centres unmarked) [N,N-dimethylphytosphingosine]	25.0	more strong inhibitory effect than that of dimethylsphingosine	induced cell death	induced cell death	far superior to that of dimethylsphingosine	induced cell death	far superior to that of dimethylsphingosine	induced cell death	far superior to that of dimethylsphingosine	induced cell death	far superior to that of dimethylsphingosine	obvious ladder-like DNA fragmentation at a lower concentration compared to C2-ceramide	stronger than C2 ceramide	higher absorbance (A405 nm-A490 nm) than other controls	stronger inhibitory effect than any other compound	40	reduced	40	reduced
